Numbered stars: 1 amine (or outer) side, 2 acyl side, 3 side chain; on linkers, the order of the positions; unused ones are H or OH. Bridge positions count the residues as written; N and C are the ends. Square brackets hold non-standard residues; d marks the D form. Peptide text beside a SMILES is read from it. * marks the point of attachment. C20 diacid = O=C(O)CCCCCCCCCCCCCCCCCCC(=O)*; γGlu = O=C(O)[C@H](CCC(=O)[*:2])N[*:1]; Hyp = O=C(O)[C@@H]1C[C@@H](O)CN1
What was measured:
[1] = target: T1, hAMY3 receptor (Homo sapiens, UniProt O60896+P30988); experiment: cAMP assay for in vitro receptor activation, hAMY3-R; format: cell-based; details: cAMP assay, hAMY3 receptor; read-out: hAMY3R EC50
T1 sequence (P30988 25-474): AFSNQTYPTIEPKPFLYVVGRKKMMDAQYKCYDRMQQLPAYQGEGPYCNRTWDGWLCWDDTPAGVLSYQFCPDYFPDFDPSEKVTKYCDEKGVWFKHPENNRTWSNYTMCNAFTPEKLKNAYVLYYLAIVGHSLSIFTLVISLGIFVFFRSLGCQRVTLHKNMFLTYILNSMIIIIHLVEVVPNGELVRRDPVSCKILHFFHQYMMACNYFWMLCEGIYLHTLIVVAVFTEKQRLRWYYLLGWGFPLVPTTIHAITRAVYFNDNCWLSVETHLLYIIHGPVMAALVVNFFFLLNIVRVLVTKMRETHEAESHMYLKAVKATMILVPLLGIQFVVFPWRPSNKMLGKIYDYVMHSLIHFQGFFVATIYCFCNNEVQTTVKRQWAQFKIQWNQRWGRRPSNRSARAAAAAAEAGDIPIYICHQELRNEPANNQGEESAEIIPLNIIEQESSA
T1 sequence (O60896 24-148 partner): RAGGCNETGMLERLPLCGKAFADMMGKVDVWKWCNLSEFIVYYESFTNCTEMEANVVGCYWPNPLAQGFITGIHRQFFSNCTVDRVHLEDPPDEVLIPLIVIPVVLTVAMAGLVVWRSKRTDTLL
In short: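 Accumulated cAMP was detected by time-resolved FRET one hour after reagent addition. Beforehand, hAMY3-R-overexpressing monoclonal cells (2000/well, DPBS, 0.05% casein, 0.5 mM IBMX) received graded doses of compound for 30 min at room temperature; human amylin served as positive control.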

[2] = target: hAM1 receptor (Homo sapiens, UniProt O60895+Q16602); experiment: cAMP assay for in vitro receptor activation, hAM1-R; format: cell-based; details: cAMP assay, hAM1 receptor; read-out: hAM1R EC50
Chain of hAM1 receptor (Q16602 23-461): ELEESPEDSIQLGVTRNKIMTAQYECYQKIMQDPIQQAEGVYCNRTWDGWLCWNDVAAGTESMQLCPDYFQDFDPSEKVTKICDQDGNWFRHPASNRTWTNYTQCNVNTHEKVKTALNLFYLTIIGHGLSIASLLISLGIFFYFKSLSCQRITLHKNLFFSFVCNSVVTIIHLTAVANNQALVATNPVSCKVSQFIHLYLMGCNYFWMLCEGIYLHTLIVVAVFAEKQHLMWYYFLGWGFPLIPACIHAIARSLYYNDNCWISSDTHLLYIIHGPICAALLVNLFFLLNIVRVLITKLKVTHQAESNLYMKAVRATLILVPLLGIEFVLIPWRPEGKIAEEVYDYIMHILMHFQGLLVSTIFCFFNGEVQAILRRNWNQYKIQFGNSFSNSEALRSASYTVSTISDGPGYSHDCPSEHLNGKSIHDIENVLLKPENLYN
Chain of hAM1 receptor (O60895 43-175 partner): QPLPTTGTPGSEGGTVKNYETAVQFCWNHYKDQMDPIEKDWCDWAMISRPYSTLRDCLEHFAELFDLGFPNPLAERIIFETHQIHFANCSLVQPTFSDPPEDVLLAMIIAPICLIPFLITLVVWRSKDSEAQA
In short: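 Monoclonal stable hAM1-overexpressing cells, thawed from frozen stock; 8000 cells/well in DPBS + 0.05% casein + 0.5 mM IBMX; read-out cAMP.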

| SMILES | EC50 [1] [nM] | EC50 [2] [nM] |
| --- | --- | --- |
| CC[C@H](C)[C@H](NC(=O)[C@H](C)NC(=O)CNC(=O)[C@H](Cc1ccccc1)NC(=O)[C@H](CC(N)=O)NC(=O)[C@H](CC(N)=O)NC(=O)[C@H](CO)NC(=O)[C@H](CO)NC(=O)[C@H](Cc1c[nH]cn1)NC(=O)[C@@H](NC(=O)[C@H](CC(C)C)NC(=O)[C@H](Cc1ccccc1)NC(=O)[C@H](CC(N)=O)NC(=O)[C@H](C)NC(=O)[C@H](CC(C)C)NC(=O)[C@H](CCCNC(=N)N)NC(=O)[C@H](CCC(N)=O)NC(=O)[C@@H](NC(=O)[C@H](C)NC(=O)[C@@H]1CSSC[C@H](NC(=O)[C@@H](N)CCCCN)C(=O)N[C@@H](CC(N)=O)C(=O)N[C@@H]([C@@H](C)O)C(=O)N[C@@H](C)C(=O)N[C@@H]([C@@H](C)O)C(=O)N1)[C@@H](C)O)C(C)C)C(=O)N[C@@H](CC(C)C)C(=O)N1CCC[C@H]1C(=O)N[C@@H](CO)C(=O)N[C@H](C(=O)N[C@@H](CCCCN)C(=O)N[C@H](C(=O)NCC(=O)N[C@@H](CO)C(=O)N[C@@H](CC(N)=O)C(=O)NCC(=O)N[C@@H](Cc1ccc(O)cc1)C(N)=O)C(C)C)[C@@H](C)O [compound 59] (H-KCNTATCATQRLANFLVHSSNNFGAILPSTKVGSNGY-NH2; disulfide 2-7) | 0.012 | > 5000 |
| CC[C@H](C)[C@H](NC(=O)[C@H](CCC(N)=O)NC(=O)[C@H](Cc1c[nH]cn1)NC(=O)[C@H](C)NC(=O)[C@H](CC(C)C)NC(=O)[C@H](CCCNC(=N)N)NC(=O)[C@H](CCC(N)=O)NC(=O)[C@@H](NC(=O)[C@@H](NC(=O)[C@@H]1CSSC[C@H](NC(=O)[C@@H](N)CCCCN)C(=O)N[C@@H](CC(N)=O)C(=O)N[C@@H]([C@@H](C)O)C(=O)N[C@@H](C)C(=O)N[C@@H]([C@@H](C)O)C(=O)N1)[C@@H](C)O)C(C)C)C(=O)N[C@@H](Cc1ccc(O)cc1)C(=O)N[C@@H](CCC(N)=O)C(=O)N[C@@H](Cc1ccccc1)C(=O)N[C@H](C(=O)N[C@@H](CC(=O)O)C(=O)N[C@@H](CCCCN)C(=O)N[C@@H](CC(=O)O)C(=O)N[C@@H](CCCCN)C(=O)N[C@@H](CC(=O)O)C(=O)N[C@@H](CC(N)=O)C(=O)N[C@H](C(=O)N[C@@H](C)C(=O)N1CCC[C@H]1C(=O)N[C@H](C(=O)N[C@@H](CC(N)=O)C(=O)N[C@H](C(=O)NCC(=O)N[C@@H](CO)C(=O)N[C@@H](CC(N)=O)C(=O)NCC(=O)N1C[C@H](O)C[C@H]1C(N)=O)C(C)C)[C@@H](C)O)C(C)C)[C@@H](C)O [compound 31] (H-KCNTATCTVQRLAHQIYQFTDKDKDNVAPTNVGSNG[Hyp]-NH2; disulfide 2-7; N-terminus assumed) | 0.008 | > 5000 |
| CC[C@H](C)[C@H](NC(=O)[C@H](CCC(N)=O)NC(=O)[C@H](Cc1c[nH]cn1)NC(=O)[C@H](C)NC(=O)[C@H](CC(C)C)NC(=O)[C@H](CCCNC(=N)N)NC(=O)[C@H](CCC(N)=O)NC(=O)[C@@H](NC(=O)[C@@H](NC(=O)[C@@H]1CSSC[C@H](NC(=O)[C@H](CCCCN)NC(=O)CC[C@H](NC(=O)CCCCCCCCCCCCCCCCCCC(=O)O)C(=O)O)C(=O)N[C@@H](CC(N)=O)C(=O)N[C@@H]([C@@H](C)O)C(=O)N[C@@H](C)C(=O)N[C@@H]([C@@H](C)O)C(=O)N1)[C@@H](C)O)C(C)C)C(=O)N[C@H](C(=O)N[C@@H](CCC(N)=O)C(=O)N[C@@H](Cc1ccccc1)C(=O)N[C@H](C(=O)N[C@@H](CC(=O)O)C(=O)N[C@@H](CCCCN)C(=O)N[C@@H](CC(=O)O)C(=O)N[C@@H](CCCCN)C(=O)N[C@@H](CC(=O)O)C(=O)N[C@@H](CC(N)=O)C(=O)N[C@H](C(=O)N[C@@H](C)C(=O)N1CCC[C@H]1C(=O)N1CCC[C@H]1C(=O)N[C@H](C(=O)N[C@@H](CC(N)=O)C(=O)N[C@H](C(=O)NCC(=O)N[C@@H](CO)C(=O)N[C@@H](CC(N)=O)C(=O)NCC(=O)N1C[C@H](O)C[C@H]1C(N)=O)C(C)C)[C@@H](C)O)C(C)C)[C@@H](C)O)[C@@H](C)O [compound 22] ({C20 diacid-γGlu}-KCNTATCTVQRLAHQITQFTDKDKDNVAPPTNVGSNG[Hyp]-NH2; disulfide 2-7) | 0.008 | > 5000 |

Results, then the molecule that gave them:

| EC50 [1] [nM] | EC50 [2] [nM] | SMILES |
| --- | --- | --- |
| 0.02 | > 5000 | CC[C@H](C)[C@H](NC(=O)[C@H](CCC(N)=O)NC(=O)[C@H](Cc1c[nH]cn1)NC(=O)[C@H](C)NC(=O)[C@H](CC(C)C)NC(=O)[C@H](CCCNC(=N)N)NC(=O)[C@H](CCC(N)=O)NC(=O)[C@@H](NC(=O)[C@@H](NC(=O)[C@@H]1CSSC[C@H](NC(=O)[C@H](CCCCN)NC(=O)CC[C@H](NC(=O)CCCCCCCCCCCCCCCCCCC(=O)O)C(=O)O)C(=O)N[C@@H](CC(N)=O)C(=O)N[C@@H]([C@@H](C)O)C(=O)N[C@@H](C)C(=O)N[C@@H]([C@@H](C)O)C(=O)N1)[C@@H](C)O)C(C)C)C(=O)N[C@@H](CCC(=O)O)C(=O)N[C@@H](CCC(N)=O)C(=O)N[C@@H](Cc1ccccc1)C(=O)N[C@H](C(=O)N[C@@H](CC(=O)O)C(=O)N[C@@H](CCCCN)C(=O)N[C@@H](CC(=O)O)C(=O)N[C@@H](CCCCN)C(=O)N[C@@H](CC(=O)O)C(=O)N[C@@H](CC(N)=O)C(=O)N[C@H](C(=O)N[C@@H](C)C(=O)N1CCC[C@H]1C(=O)N1CCC[C@H]1C(=O)N[C@H](C(=O)N[C@@H](CC(N)=O)C(=O)N[C@H](C(=O)NCC(=O)N[C@@H](CO)C(=O)N[C@@H](CC(N)=O)C(=O)NCC(=O)N1C[C@H](O)C[C@H]1C(N)=O)C(C)C)[C@@H](C)O)C(C)C)[C@@H](C)O [compound 110] ({C20 diacid-γGlu}-KCNTATCTVQRLAHQIEQFTDKDKDNVAPPTNVGSNG[Hyp]-NH2; disulfide 2-7) |
| 0.014 | > 5000 | CC[C@H](C)[C@H](NC(=O)[C@H](CCC(N)=O)NC(=O)[C@H](Cc1c[nH]cn1)NC(=O)[C@H](C)NC(=O)[C@H](CC(C)C)NC(=O)[C@H](CCCNC(=N)N)NC(=O)[C@H](CCC(N)=O)NC(=O)[C@@H](NC(=O)[C@@H](NC(=O)[C@@H]1CSSC[C@H](NC(=O)[C@H](CCCCN)NC(=O)CC[C@H](NC(=O)CCCCCCCCCCCCCCCCCCC(=O)O)C(=O)O)C(=O)N[C@@H](CC(N)=O)C(=O)N[C@@H]([C@@H](C)O)C(=O)N[C@@H](C)C(=O)N[C@@H]([C@@H](C)O)C(=O)N1)[C@@H](C)O)C(C)C)C(=O)N[C@@H](C)C(=O)N[C@@H](CCC(N)=O)C(=O)N[C@@H](Cc1ccccc1)C(=O)N[C@@H](CO)C(=O)N[C@@H](CC(=O)O)C(=O)N[C@@H](CCCCN)C(=O)N[C@@H](CC(=O)O)C(=O)N[C@@H](CCCCN)C(=O)N[C@@H](CC(=O)O)C(=O)N[C@@H](CC(N)=O)C(=O)N[C@H](C(=O)N[C@@H](C)C(=O)N1CCC[C@H]1C(=O)N1CCC[C@H]1C(=O)N[C@H](C(=O)N[C@@H](CC(N)=O)C(=O)N[C@H](C(=O)NCC(=O)N[C@@H](CO)C(=O)N[C@@H](CC(N)=O)C(=O)NCC(=O)N1C[C@H](O)C[C@H]1C(N)=O)C(C)C)[C@@H](C)O)C(C)C [compound 79] ({C20 diacid-γGlu}-KCNTATCTVQRLAHQIAQFSDKDKDNVAPPTNVGSNG[Hyp]-NH2; disulfide 2-7) |
| 0.016 | > 5000 | CC[C@H](C)[C@H](NC(=O)[C@H](CCC(N)=O)NC(=O)[C@H](Cc1c[nH]cn1)NC(=O)[C@H](C)NC(=O)[C@H](CC(C)C)NC(=O)[C@H](CCCNC(=N)N)NC(=O)[C@H](CCC(N)=O)NC(=O)[C@@H](NC(=O)[C@@H](NC(=O)[C@@H]1CSSC[C@H](NC(=O)[C@H](CCCCN)NC(=O)CC[C@H](NC(=O)CCCCCCCCCCCCCCCCCCC(=O)O)C(=O)O)C(=O)N[C@@H](CC(N)=O)C(=O)N[C@@H]([C@@H](C)O)C(=O)N[C@@H](C)C(=O)N[C@@H]([C@@H](C)O)C(=O)N1)[C@@H](C)O)C(C)C)C(=O)N[C@@H](C)C(=O)N[C@@H](CCC(N)=O)C(=O)N[C@@H](Cc1ccccc1)C(=O)N[C@H](C(=O)N[C@@H](CC(N)=O)C(=O)N[C@@H](CCCCN)C(=O)N[C@@H](CC(=O)O)C(=O)N[C@@H](CCCCN)C(=O)N[C@@H](CC(=O)O)C(=O)N[C@@H](CC(N)=O)C(=O)N[C@H](C(=O)N[C@@H](C)C(=O)N1CCC[C@H]1C(=O)N1CCC[C@H]1C(=O)N[C@H](C(=O)N[C@@H](CC(N)=O)C(=O)N[C@H](C(=O)NCC(=O)N[C@@H](CO)C(=O)N[C@@H](CC(N)=O)C(=O)NCC(=O)N1C[C@H](O)C[C@H]1C(N)=O)C(C)C)[C@@H](C)O)C(C)C)[C@@H](C)O [compound 95] ({C20 diacid-γGlu}-KCNTATCTVQRLAHQIAQFTNKDKDNVAPPTNVGSNG[Hyp]-NH2; disulfide 2-7) |

From patent publication US12139520B2 (priority 2020, dated 2024)
